Measured values reported in patent publication US12427125B2 (priority 2020, dated 2025).
Where two headings read alike, the source gives them in different places.

Key:
[1] = system: female CD-1 mice; conditions: for BALF Protein Concentration Mean / BALF Protein Conc. Mean / Total Neutrophil Count per Lavage, Mean: group mean
Experimental: The protocols obtained 30 or 18 female CD-1 mice (Charles River Lab) and monitored daily for body condition and health status during the 3-5 days acclimation period.
At time 0, the mice were weighed. LPS was prepared 1 mg LPS in 1 ml phosphate buffered saline (PBS) to get a final concentration of 1 mg/mL. Dosed 50 μl intratracheally to the mice at time 0. For the N=30 or 18 mice in an incubator, temperature was set to achieve a core temperature of 39° C. as measured by a calibrated thermometer inserted through the top lid of the incubator with the bulb at the level of the mouse cages in the incubator (set temperature knob at 36.7° C.). In addition, a rectal probe to confirmed core temperature in the mice (check right before sacrifice at 24 h post LPS). All mice were given access to food and water at all time. Treatment was initiated three days prior to LPS dosing.
For anesthesia and LPS Dosing, mice were placed in a bell jar, with isoflurane-soaked gauze separated from the mouse by a screen and keep within a scrubber (so the operator isn't anesthetized). Monitored respiratory rate of each mouse and when reduced by half (usually within 5 seconds of going down), then take the mouse out. Each mouse was suspended from incisors across a string tied between two screws on a Plexiglas board and kept at about 70 degrees. Using blunt forceps, grabbed the tongue and hold extended, then instill 50 μL of the LPS solution into the oropharynx using a PennCentury needle/areosolizer. […] Mouse kept in this position for 5-10 seconds to allow distribution of the LPS, then returned to their cage.
Bronchoalveolar lavage fluid (BALF) was collected using rounded tip scissors make a vertical incision though skin but not peritoneum from the lower abdomen up to the jaw. Using two forceps grabbed the edge of the skin and pull apart to get wide exposure to underlying peritoneum and thoracic connective tissue/muscle. Using forceps, picked up peritoneum near the mid abdomen and with rounded tip scissors made a small incision in the peritoneum (avoid cutting gut). Then, while holding the upper edge of the peritoneum, used the rounded tip scissors to extend the incision diagonally to the left upper and right upper quadrants. Moved the liver and intestines out of the way so you can see the underside of the diaphragms. Using the rounded tip scissors, nibbled up toward the diaphragm until you can see the lungs on the other side pull away. Repeated on the other side, being careful to not nick the lungs or else you will not be able to recover lavage. Using the rounded tip scissors, cut through the diaphragm where it inserts on the anterior chest wall. Using the rounded tip scissors and taking care to avoid nicking the lung by moving it away with blunt forceps, cut through the chest wall laterally on both sides until you reach the top of the thorax, then cut across the midline at the top to remove the anterior chest wall. Using forceps pull upward on the heart and cut through at its base to remove. Using the rounded tip scissors, remove the fat pads overlying the trachea taking care not to nick the trachea. Using the rounded tip scissors inserted next to the trachea from the top of the thoracic cavity and kept next to and parallel to the trachea, make a single cut, which allowed removal of the rest of the soft tissue from the trachea but pulling over to the other side and carefully trimming to avoid nicking the trachea. Using sharp forceps carefully placed posterior to the trachea pull suture behind the trachea about 4-5 mm below the cricoid and made a very loose surgical knot (two loops around). Using ophthalmic scissors, very carefully made a cut through the anterior half of the trachea just below the cricoid. Inserted a short blunt needle into tracheal so the tip extended about 5-6 mm below the cricoid and tied a suture tightly with a second knot.

[2] = system: CD-1 mice; conditions: for Tolerability: mouse, in vivo
[3] = system: female CD-1 mice
[4] = system: adult patients infected by SARS-CoV-19 (COVID-19); conditions: oral DA 30, 60 or 100 mg/kg BID for up to ten days; paper example

Structure (SMILES): CC(=O)[O-].CC[N+](CC)(CC(=O)Nc1c(C)cccc1C)Cc1ccccc1 [DA, Denatonium acetate]
- BALF Protein Concentration Mean ([1]; first study, DA 3 mg/kg IV QD): 0.638 mg/mL
- BALF Protein Concentration Mean ([1]; first study, DA 92.4 mg/kg PO BID): 0.428 mg/mL
- Effect on BALF protein concentration, in words ([1]; first study, PO 92.4 mg/kg BID compared with iv 3 mg/kg QD, Table 3, FIG. 1): Only oral administration was effective
- BALF Protein Conc. Mean ([1]; second study, DA 3 mg/kg IP QD): 0.727 mg/mL
- Total Neutrophil Count per Lavage, Mean ([1]; second study, DA 3 mg/kg IP): 610,900
- BALF Protein Conc. Mean ([1]; second study, DA 92.4 mg/kg PO BID): 0.986 mg/mL
- Total Neutrophil Count per Lavage, Mean ([1]; second study, DA 92.4 mg/kg PO): 535,080
- Effect on BALF total neutrophil count, in words ([1]; second study, PO 92.4 mg/kg compared with ip 3 mg/kg, Table 5, FIG. 2): Only oral administration was effective
- Changes in BALF protein concentrations, in words ([1]; second study, oral and IP dosing, Table 4): nominal (but non-significant) changes
- Other adverse clinical observations ([2]; first study, during 3 days of test article administration): No other adverse clinical observations were noted
- Tolerability ([2]; iv, 3 mg/kg): well-tolerated
- Tolerability ([2]; po, 92.4 mg/kg): well-tolerated
- Mice found dead on Day 1 (within 24 h after LPS instillation) ([3]; mouse, in vivo): one
- Tolerability ([3]; mouse, in vivo, ip, 3 mg/kg): well-tolerated
- Tolerability ([3]; mouse, in vivo, po, 92.4 mg/kg): well-tolerated
- Other adverse clinical observations ([3]; second study, during 3 days of test article administration): No other adverse clinical observations were noted
- Decrease in adult respiratory distress syndrome (ARDS), including chronic pulmonary function, diffusion capacity and lung compliance [4]: ≥ 20%
- Decrease in mortality [4]: ~40%
- Patient tolerance [4]: adequate patient tolerance
